ChEMBL document CHEMBL4765466, “Recent Advances in the Development of PD-L1 Modulators: Degraders, Downregulators, and Covalent Inhibitors” (J Med Chem, 2020)

Assay: Lipophilicity, log P of the compound
Assay type: physicochemical
Conditions: octanol/water

For `COc1nc(OCc2cccc(-c3ccccc3)c2C)ccc1CNCCNC(C)=O`, the logP was 4.4.
